Patent publication US10622572B2, “Organic thin-film transistor and method for manufacturing the same, material for organic thin-film transistor, composition for organic thin-film transistor, compound, and organic semiconductor film” (FUJIFILM Corporation, priority 2015, dated 2020)
Where two headings read alike, the source gives them in different places.

Assay: Solubility in organic solvents
Type: physicochemical
Conditions: organic solvent or mixture, thermodynamic from solid
[1] = 5 mg in 1 mL anisole, read-out: Solubility Anisole
[2] = 5 mg in 1 mL chloroform, read-out: Solubility Chloroform
[3] = 5 mg in 1 mL tetrahydrofuran, read-out: Solubility Tetrahydrofuran
[4] = 5 mg in 1 mL tetralin, read-out: Solubility Tetralin
[5] = 5 mg in 1 mL toluene, read-out: Solubility Toluene

Measured: solubility

CC(C)[Si](C#Cc1cc2c(cc(C#C[Si](C(C)C)(C(C)C)C(C)C)c3c4ccsc4ccc23)c2ccc3sccc3c12)(C(C)C)C(C)C [Compound 1]
> 5000 µg/mL: [1] | [2] | [3] | [4] | [5]

CC(C)[Si](C#Cc1cc2c(cc(C#C[Si](C(C)C)(C(C)C)C(C)C)c3c2ccc2ccsc23)c2ccc3ccsc3c12)(C(C)C)C(C)C [Compound 2]
> 5000 µg/mL: [1] | [2] | [3] | [4] | [5]

CC(C)[Si](C#Cc1cc2c(cc(C#C[Si](C(C)C)(C(C)C)C(C)C)c3c4cc(F)sc4ccc23)c2ccc3sc(F)cc3c12)(C(C)C)C(C)C [Compound 3]
> 5000 µg/mL: [1] | [2] | [3] | [4] | [5]

CC(C)[Si](C#Cc1cc2c(cc(C#C[Si](C(C)C)(C(C)C)C(C)C)c3c2ccc2cc(F)sc23)c2ccc3cc(F)sc3c12)(C(C)C)C(C)C [Compound 4]
> 5000 µg/mL: [1] | [2] | [3] | [4] | [5]
